Source: ChEMBL document CHEMBL1139973, “Synthesis and structure-activity relationships of taxuyunnanine C derivatives as multidrug resistance modulator in MDR cancer cells” (Bioorg Med Chem Lett, 2007)

Experiments:
[1] = target: T1, ATP-dependent translocase ABCB1 (Homo sapiens, UniProt P08183); test: Inhibition of Pgp in multidrug-resistant human 2780AD cells assessed as calcein accumulation at 0.25 ug/mL relative to control; type: cell-based; parameters: scale not given: the % may be the effect or the level left; conditions: a2780 adr
T1 sequence (P08183 whole entry): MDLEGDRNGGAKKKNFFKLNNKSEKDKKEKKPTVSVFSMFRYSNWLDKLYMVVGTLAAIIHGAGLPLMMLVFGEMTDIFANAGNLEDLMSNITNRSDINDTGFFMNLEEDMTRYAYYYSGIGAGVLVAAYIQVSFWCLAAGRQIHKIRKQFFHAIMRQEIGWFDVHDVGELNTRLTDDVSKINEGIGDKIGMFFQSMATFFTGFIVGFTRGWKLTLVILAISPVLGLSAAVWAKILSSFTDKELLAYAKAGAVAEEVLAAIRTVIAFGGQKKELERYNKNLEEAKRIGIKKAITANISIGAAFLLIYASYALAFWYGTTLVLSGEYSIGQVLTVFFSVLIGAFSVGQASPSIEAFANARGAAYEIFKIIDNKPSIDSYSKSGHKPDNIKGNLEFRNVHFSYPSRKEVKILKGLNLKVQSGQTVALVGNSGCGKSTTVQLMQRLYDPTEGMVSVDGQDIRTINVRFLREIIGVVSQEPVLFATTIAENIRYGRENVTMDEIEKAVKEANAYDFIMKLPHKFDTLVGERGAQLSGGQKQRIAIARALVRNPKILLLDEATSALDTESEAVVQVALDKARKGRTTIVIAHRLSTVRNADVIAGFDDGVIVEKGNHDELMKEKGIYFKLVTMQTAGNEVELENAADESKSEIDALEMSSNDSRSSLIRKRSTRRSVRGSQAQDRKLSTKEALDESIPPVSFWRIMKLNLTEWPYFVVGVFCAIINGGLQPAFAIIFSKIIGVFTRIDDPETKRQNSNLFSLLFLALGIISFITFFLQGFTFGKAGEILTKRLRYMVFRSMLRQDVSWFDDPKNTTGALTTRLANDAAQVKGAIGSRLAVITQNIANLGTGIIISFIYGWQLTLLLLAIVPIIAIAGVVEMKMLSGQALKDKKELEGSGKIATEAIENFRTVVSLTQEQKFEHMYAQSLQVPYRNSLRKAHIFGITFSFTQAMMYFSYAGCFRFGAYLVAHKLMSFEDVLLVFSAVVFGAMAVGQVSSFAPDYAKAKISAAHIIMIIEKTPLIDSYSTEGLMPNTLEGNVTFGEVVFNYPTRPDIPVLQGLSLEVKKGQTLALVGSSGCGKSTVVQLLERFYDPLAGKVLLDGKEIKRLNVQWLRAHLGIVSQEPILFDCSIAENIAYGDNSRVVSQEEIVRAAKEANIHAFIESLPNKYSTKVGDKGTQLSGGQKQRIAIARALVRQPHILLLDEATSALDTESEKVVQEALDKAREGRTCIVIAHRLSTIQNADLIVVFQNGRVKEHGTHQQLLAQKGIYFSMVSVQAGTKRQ

[2] = target: T1, ATP-dependent translocase ABCB1; test: Inhibition of Pgp in multidrug-resistant human 2780AD cells assessed as calcein accumulation at 25 ug/mL relative to control; type: cell-based; parameters: scale not given: the % may be the effect or the level left; conditions: a2780 adr
[3] = Growth inhibition of human WI38 cells; type: cell-based; conditions: WI-38
WI-38 VA13 = test: Growth inhibition of human VA13 cells; type: functional, cell-based
HepG2 = test: Growth inhibition of human HepG2 cells; type: functional, cell-based
[4] = target: T1, ATP-dependent translocase ABCB1; test: Inhibition of Pgp in multidrug-resistant human 2780AD cells assessed as calcein accumulation at 2.5 ug/mL relative to control; type: cell-based; parameters: scale not given: the % may be the effect or the level left; conditions: a2780 adr
[5] = target: T1, ATP-dependent translocase ABCB1; test: Inhibition of Pgp in multidrug-resistant human 2780AD cells assessed as vincristine accumulation at 0.1 ug/mL relative to control; type: cell-based; parameters: scale not given: the % may be the effect or the level left; conditions: a2780 adr
[6] = target: T1, ATP-dependent translocase ABCB1; test: Inhibition of Pgp in multidrug-resistant human 2780AD cells assessed as vincristine accumulation at 1.0 ug/mL relative to control; type: cell-based; parameters: scale not given: the % may be the effect or the level left; conditions: a2780 adr
[7] = target: T1, ATP-dependent translocase ABCB1; test: Inhibition of Pgp in multidrug-resistant human 2780AD cells assessed as vincristine accumulation at 10 ug/mL relative to control; type: cell-based; parameters: scale not given: the % may be the effect or the level left; conditions: a2780 adr
[8] = target: T1, ATP-dependent translocase ABCB1; test: Inhibition of Pgp in multidrug-resistant human 2780AD cells assessed as vincristine accumulation at 0.1 ug/mL relative to verapamil; type: cell-based; parameters: scale not given: the % may be the effect or the level left; conditions: a2780 adr
[9] = target: T1, ATP-dependent translocase ABCB1; test: Inhibition of Pgp in multidrug-resistant human 2780AD cells assessed as vincristine accumulation at 1.0 ug/mL relative to verapamil; type: cell-based; parameters: scale not given: the % may be the effect or the level left; conditions: a2780 adr
[10] = target: T1, ATP-dependent translocase ABCB1; test: Inhibition of Pgp in multidrug-resistant human 2780AD cells assessed as vincristine accumulation at 10 ug/mL relative to verapamil; type: cell-based; parameters: scale not given: the % may be the effect or the level left; conditions: a2780 adr

SMILES | Activity [1] | Activity [2] | IC50 [3] | IC50 (WI-38 VA13) | IC50 (HepG2) | Activity [4] | Activity [5] | Activity [6] | Activity [7] | Activity [8] | Activity [9] | Activity [10]
C=C1[C@@H](OC(C)=O)CC[C@@]2(C)C[C@H](OC(C)=O)C3=C(C)C[C@H](OC(=O)C(C)CC)[C@@H]([C@@H](OC(C)=O)[C@H]12)C3(C)C (stereo partly specified) | 100% | 119% | > 183 µM | 61.1 µM | 41.7 µM | 86% |  |  |  |  |  | 
C=C1[C@@H](OC(C)=O)CC[C@@]2(C)C[C@H](OC(C)=O)C3=C(C)C[C@H](OC(C)=O)[C@@H]([C@@H](OC(C)=O)[C@H]12)C3(C)C [TAXUYUNNANINE C] | 130% | 127% | 130 µM | 53.1 µM | 18.5 µM | 141% |  |  |  |  |  | 
C=C1[C@@H](OC(C)=O)CC[C@@]2(C)C[C@H](OC(=O)/C=C/c3ccccc3)C3=C(C)C[C@H](OC(=O)/C=C/c4ccccc4)[C@@H]([C@@H](OC(C)=O)[C@H]12)C3(C)C | 83% | 80% | > 147 µM | > 147 µM | > 147 µM | 80% | 91% | 92% | 122% | 83% | 49% | 27%
C=C1[C@@H](OC(C)=O)CC[C@@]2(C)C[C@H](OC(C)=O)C3=C(C)CC[C@@H]([C@@H](OC(C)=O)[C@H]12)C3(C)C | 89% | 91% | 8.93 µM | 12.2 µM | 10.3 µM | 105% |  |  |  |  |  | 
C=C1[C@@H](OC(C)=O)CC[C@@]2(C)C[C@H](OC(C)=O)C3=C(C)C[C@H](OC(=O)/C=C/c4ccccc4)[C@@H]([C@@H](OC(C)=O)[C@H]12)C3(C)C | 123% | 125% | 154 µM | > 169 µM | > 169 µM | 126% | 95% | 140% | 280% | 87% | 75% | 62%
C=C1[C@@H](OC(C)=O)CC[C@@]2(C)C[C@H](OC(C)=O)C3=C(C)C[C@H](OC(C)=O)[C@@H]([C@@H](O)[C@H]12)C3(C)C | 99% | 111% | 130 µM | 104 µM | 122 µM | 99% | 101% | 144% | 259% | 89% | 84% | 74%
C=C1[C@@H](OC(C)=O)CC[C@@]2(C)C[C@H](OC(C)=O)C3=C(C)C[C@H](OC(=O)CC)[C@@H]([C@@H](OC(C)=O)[C@H]12)C3(C)C | 104% | 119% | > 193 µM | 93.7 µM | 86.4 µM | 98% |  |  |  |  |  | 
C=C1[C@@H](OC(C)=O)CC[C@@]2(C)[C@@H](O)[C@H](OC(C)=O)C3=C(C)C[C@H](OC(C)=O)[C@@H]([C@@H](OC(C)=O)[C@H]12)C3(C)C | 102% | 110% | 129 µM | > 192 µM | 128 µM | 101% | 86% | 108% | 168% | 79% | 58% | 37%
C=C1[C@@H](OC(C)=O)CC[C@@]2(C)C[C@H](O)C3=C(C)C[C@H](OC(C)=O)[C@@H]([C@@H](OC(C)=O)[C@H]12)C3(C)C | 103% | 111% | 105 µM | 12.6 µM | 108 µM | 98% | 92% | 119% | 229% | 84% | 64% | 51%
C=C1[C@@H](OC(C)=O)CC[C@@]2(C)C[C@H](OC(=O)/C=C/c3ccccc3)C3=C(C)C[C@H](OC(C)=O)[C@@H]([C@@H](OC(C)=O)[C@H]12)C3(C)C | 92% | 126% | > 169 µM | > 169 µM | 106 µM | 123% | 132% | 209% | 451% | 130% | 118% | 81%
C=C1[C@@H](OC(=O)/C=C/c2ccccc2)CC[C@@]2(C)C[C@H](OC(C)=O)C3=C(C)C[C@H](OC(C)=O)[C@@H]([C@@H](OC(C)=O)[C@H]12)C3(C)C | 102% | 121% | 99 µM | 125 µM | 9.95 µM | 95% |  |  |  |  |  | 
C=C1[C@@H](OC(C)=O)CC[C@@]2(C)C[C@H](OC(=O)/C=C/c3ccccc3)C3=C(C)C[C@H](O)[C@@H]([C@@H](OC(C)=O)[C@H]12)C3(C)C | 109% | 113% | 71.7 µM | 11.5 µM | 15.3 µM | 113% | 114% | 190% | 497% | 105% | 102% | 110%
C=C1[C@@H](OC(C)=O)CC[C@@]2(C)C[C@H](OC(C)=O)C3=C(C)C[C@H](OC(=O)c4ccccc4)[C@@H]([C@@H](OC(C)=O)[C@H]12)C3(C)C | 90% | 133% | > 176 µM | > 176 µM | 144 µM | 107% |  |  |  |  |  | 
C=C1[C@@H](OC(C)=O)C[C@H](OC(=O)/C=C/c2ccccc2)[C@@]2(C)C[C@H](OC(C)=O)C3=C(C)C[C@H](OC(=O)C(C)CC)[C@@H]([C@@H](OC(C)=O)[C@H]12)C3(C)C (stereo partly specified) | 96% | 102% | > 144 µM | > 144 µM | > 144 µM | 98% |  |  |  |  |  | 
C=C1[C@@H](OC(C)=O)CC[C@@]2(C)[C@@H](OC(=O)/C=C/c3ccccc3)[C@H](OC(C)=O)C3=C(C)C[C@H](OC(C)=O)[C@@H]([C@@H](OC(C)=O)[C@H]12)C3(C)C | 102% | 125% | 151 µM | > 154 µM | > 154 µM | 103% |  |  |  |  |  | 
C=C1[C@@H](OC(C)=O)CC[C@@]2(C)C[C@H](OC(C)=O)C3=C(C)C[C@H](OC(=O)C(C)C(C)O)[C@@H]([C@@H](OC(C)=O)[C@H]12)C3(C)C (stereo partly specified) [YUNNANXANE] | 81% | 168% | 79.4 µM | 9.29 µM | 18.5 µM | 94% |  |  |  |  |  | 
C=C1[C@@H](OC(C)=O)CC[C@@]2(C)C[C@H](OC(C)=O)C3=C(C)C[C@H](OC(=O)CCCC)[C@@H]([C@@H](OC(C)=O)[C@H]12)C3(C)C | 94% | 111% | > 183 µM | 56.7 µM | 16.6 µM | 88% |  |  |  |  |  | 
C=C1[C@@H](OC(C)=O)C[C@H](O)[C@@]2(C)C[C@H](OC(C)=O)C3=C(C)C[C@H](OC(=O)C(C)CC)[C@@H]([C@@H](OC(C)=O)[C@H]12)C3(C)C (stereo partly specified) | 94% | 110% | 81.6 µM | 79.1 µM | 75.2 µM | 98% |  |  |  |  |  | 
C=C1[C@@H](OC(C)=O)C[C@H](OC(=O)/C=C/c2ccccc2)[C@@]2(C)C[C@H](OC(C)=O)C3=C(C)C[C@H](OC(=O)C(C)C(C)O)[C@@H]([C@@H](OC(C)=O)[C@H]12)C3(C)C (stereo partly specified) | 97% | 130% | 62.4 µM | 49.9 µM | 80.4 µM | 102% |  |  |  |  |  | 
C=C1[C@@H](OC(C)=O)C[C@H](O)[C@@]2(C)C[C@H](OC(C)=O)C3=C(C)C[C@H](OC(=O)C(C)C(C)O)[C@@H]([C@@H](OC(C)=O)[C@H]12)C3(C)C (stereo partly specified) | 87% | 107% | 140 µM | > 173 µM | 153 µM | 104% |  |  |  |  |  | 
C=C1[C@@H](O)CC[C@@]2(C)C[C@H](OC(C)=O)C3=C(C)C[C@H](OC(C)=O)[C@@H]([C@@H](OC(C)=O)[C@H]12)C3(C)C | 118% | 141% | 149 µM | 105 µM | 183 µM | 118% |  |  |  |  |  | 
C=C1[C@@H](OC(C)=O)CC[C@@]2(C)C[C@H](OC(C)=O)C3=C(C)C[C@H](OC(C)=O)[C@@H]([C@@H](OC(=O)c4ccccc4)[C@H]12)C3(C)C | 98% | 125% | 125 µM | 175 µM | 51.9 µM | 96% |  |  |  |  |  | 
C=C1[C@@H](OC(C)=O)CC[C@@]2(C)C[C@H](OC(C)=O)C3=C(C)C[C@H](OC(=O)CCC)[C@@H]([C@@H](OC(C)=O)[C@H]12)C3(C)C | 97% | 114% | 73.4 µM | 17.2 µM | 18.5 µM | 98% |  |  |  |  |  | 
C=C1[C@@H](OC(C)=O)CC[C@@]2(C)C[C@H](OC(C)=O)C3=C(C)C[C@H](OC(=O)C(C)C)[C@@H]([C@@H](OC(C)=O)[C@H]12)C3(C)C | 133% | 148% | > 188 µM | 90.9 µM | 28 µM | 139% |  |  |  |  |  | 
